The record followed here is publication PMC11374673, “Discovery of isoquinoline sulfonamides as allosteric gyrase inhibitors with activity against fluoroquinolone-resistant bacteria” (Nature Chemistry, 2024).

The subject of one test is K. pneumoniae ATCC 29665. In words: MIC by broth microdilution. The test is classed as cell-based, Klebsiella pneumoniae. Particulars: Klebsiella pneumoniae, ATCC29665, read-out: MIC K. pneumoniae ATCC 29665. An outline of the steps:
(§1)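 Exponential-phase cultures (OD600 0.5, 37 °C aerobic), diluted 100-fold in CAMHB, were added to twofold compound dilution series. Keio strains grown with 50 µg ml^−1 kanamycin. Plates incubated overnight at 37 °C, shaking at 600 r.p.m.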

Test [1] relates to E. coli BW25113 and single-gene knockouts. In words: MIC on E. coli strains of the Keio collection. Particulars: Escherichia coli, BW25113, read-out: MIC E. coli BW25113, parent strain. The test is classed as cell-based, Escherichia coli. The method, then:
(§2) MIC was determined by broth microdilution. Single-colony cultures were grown to exponential phase (OD600 of 0.5) aerobically at 37 °C. In case of strains from the Keio collection, 50 µg ml^−1 kanamycin was supplemented to the media to ascertain a homogeneous population. The bacterial suspensions were diluted 100-fold in CAMHB and 50 µl was added to a twofold serial dilution series of test compounds (50 µl per well) in polypropylene 96-well microtitre plates to reach a volume of 100 µl. The plates were sealed with breathable membranes and incubated overnight at 37 °C with constant shaking (600 r.p.m.). The MIC was determined as the lowest concentration at which no visible bacterial growth was observed as compared with the inoculum controls from the median of a minimum of triplicates.

A further test relates to E. coli ATCC 25922. Description: MIC by broth microdilution. Particulars: Escherichia coli, ATCC25922; read-out: MIC E. coli ATCC 25922. Format: cell-based. As to the method:
as §2, with “r.p.m.).” for “r.p.m.). The MIC was determined as the lowest concentration at which no visible bacterial growth was observed as compared with the inoculum controls from the median of a minimum of triplicates.”
In general terms: Broth dilution looks for growth in wells or tubes with falling amounts of substance.

In a further test the test system is P. aeruginosa ATCC 27853. Description: MIC by broth microdilution. The test is classed as cell-based. Particulars: Pseudomonas aeruginosa, ATCC27853; read-out: MIC P. aeruginosa ATCC 27853. The method, then:
as §2

The test system of test [2] is S. aureus ATCC 29213 / ATCC BAA1717. In words: MIC by broth microdilution. Format: cell-based. To be noted: Staphylococcus aureus. As to the method:
as §2

A further test concerns A. baumannii ATCC BAA747. Description: MIC by broth microdilution. Particulars: Acinetobacter baumannii, ATCCBAA747; read-out: MIC A. baumannii ATCC BAA747. Format: cell-based. As to the method: as §2
Test [3] deals with 60-resistant (60-r) isolates of E. coli W3110. Description: microbe, parasite or virus in culture. To be noted: Escherichia coli. Format: cell-based, Escherichia coli. The method, then:
as §2
The plates were incubated at 37 °C and checked for growth after 24 and 48 h. […] Nine colonies with an increased MIC were selected for further analysis and stored as glycerol stocks.

A further test deals with HEK293T. Description: Cytotoxicity assay (MTT). Format: cell-based, human. Particulars: Homo sapiens, HEK-293T, 24 h, MTT. An outline of the steps:
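HEK293T cells, maintained at 37 °C and 7% CO2 in Dulbecco’s modified Eagle medium with GlutaMax, antibiotics and serum, were plated in clear 96-well plates in 100 µl medium containing 1% fetal bovine serum and left 24 h to attach. After 24 h compound exposure, MTT (0.40 mg ml^−1) was added for 2 h. Formazan was dissolved in 100 µl DMSO and absorbance measured at 570 nm. Background-corrected IC50 values came from variable-slope non-linear fits.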

For another test, the system named is HepG2. Description: Cytotoxicity assay (MTT). The test is classed as cell-based, human. To be noted: Homo sapiens, HepG2, 24 h, MTT, 24 h.
The test system of test [4] is E. coli W3110. Description: MIC by broth microdilution. Format: cell-based, Escherichia coli. To be noted: Escherichia coli. An outline of the steps: as §1
For test [5], the system named is E. coli W3110. In words: H-89 derivatives rescreen, 50 µM. Format: cell-based. To be noted: Escherichia coli, H-89 derivative rescreen, highest 50 µM. The method, then: From glycerol stocks, E. coli W3110 was cultured on blood agar plates (PB5039A, Thermo Scientific) by overnight (18 ± 2 h) aerobic incubation at 37 °C. A single colony was transferred to tryptic soy broth (TSB, 02-200-500, Scharlab). The cultures were grown to exponential phase (OD600 of 0.5) at 37 °C. The bacterial suspensions were diluted 200-fold in cation-adjusted Mueller–Hinton broth (CAMHB) and 99 µl was added to a library of test compounds (1 µl 10 mM DMSO stock, per well in technical duplicates) in polypropylene 96-well microtitre plates to reach a volume of 100 µl and a final concentration of 100 µM for each test compound and a maximum of 1% DMSO. […] Screening hits were selected from the wells where no visible bacterial growth was observed, as compared with the inoculum controls containing 1% DMSO. The follow-up screen of H-89 derivatives was performed under similar conditions with a final concentration of 50 µM.

The subject of test [6] is E. coli W3110. In words: Time-kill assay.
Method: From glycerol stocks, bacterial strains were cultured on blood agar plates by overnight incubation at 37 °C. Subsequently, a single colony was cultured in TSB overnight at 37 °C. The culture was diluted 100-fold in fresh CAMHB and grown until early exponential phase (OD600 of 0.25) followed by 100-fold dilution in media. The culture was split in separate culture tubes containing 2 ml. […] The supernatant was discarded and pellets were washed once with filter-sterilized PBS, then resuspended in an equal volume of fresh buffer and samples were tenfold serially diluted until a 10^5 dilution. Then, 10 µl of the appropriate dilutions were inoculated on LB agar plates in technical duplicates, subsequently allowed to evaporate and incubated at 37 °C for 18 h. The colonies were counted and used to calculate the colony forming unit (c.f.u.) per ml remaining in the original culture by taking the dilution factors into account. The experiment was performed in biological duplicates.

Values after ≈ are worked out from the molar mass of the structure shown. Values joined by “and” are separate entries in the source; they are usually repeats but may differ in a detail not shown here. Equal values may be shown once. Read-outs that look alike come from different tables or passages of the source.

By IC50 is commonly meant the concentration that inhibits the measured activity by half. For the compound `O=S(=O)(NCCNCc1ccc(-c2cccnc2)cc1)c1cccc2cnccc12` [Compound 1], the MIC in the test with K. pneumoniae ATCC 29665 was 12.5 µM (≈ 5.23 µg/mL); in [1], 12.5 µM (≈ 5.23 µg/mL); with E. coli ATCC 25922 it was 25 µM (≈ 10.5 µg/mL); with P. aeruginosa ATCC 27853 it was over 50 µM; in test [2] (read-out: MIC S. aureus ATCC 29213) it was over 50 µM; in test [2] (read-out: MIC S. aureus ATCC BAA1717) it was over 50 µM. Further, the MIC in the test on A. baumannii ATCC BAA747 was over 50 µM; in test [3] (E. coli W3110 60-r1), over 100 µM; in test [3] (E. coli W3110 60-r3) it was 100 µM (≈ 41.9 µg/mL); in test [3] (E. coli W3110 60-r6), over 100 µM; in the test with E. coli W3110 [4] (W3110, WT, broth microdilution, read-out: MIC E. coli W3110), 6.25 µM; with E. coli W3110 [4] (W3110, follow-up of the 12 library hits, read-out: MIC E. coli) it was 6.25 µM. The MIC came out at 2.6 µg/mL in the test with E. coli W3110 [4] (W3110, read-out: MIC E. coli) and 6.25 µM (≈ 2.62 µg/mL) against E. coli W3110 [5]. Further, the IC50 in the test on HEK293T and with HepG2 was over 50 µM throughout.
As to `COc1cc(Cc2cnc(N)nc2N)cc(OC)c1OC` [TMP, trimethoprim], the MIC is 0.375 µM and 0.16 µg/mL in test [3] (E. coli W3110 60-r1); 0.18 µM and 0.08 µg/mL in [3] (E. coli W3110 60-r3); 0.375 µM and 0.16 µg/mL in test [3] (E. coli W3110 60-r6); 0.16 µg/mL with E. coli W3110 [4] (W3110); 0.375 µM in the test with E. coli W3110 [4] (W3110, read-out: MIC E. coli W3110). The “time kill kinetics, bacterial count” value is 5.161 and 5.204 in the test with E. coli W3110 [6] (4xMIC, 0.5 h, n = 1 and n = 2); 5.041 and 5.342 in the test with E. coli W3110 [6] (4xMIC, 1 h); 5.322 and 4.954 with E. coli W3110 [6] (4xMIC, 2 h); 4.255 and 4.204 with E. coli W3110 [6] (4xMIC, 4 h); 2.845 and 2.602 in the test with E. coli W3110 [6] (4xMIC, 8 h); 2 in the test on E. coli W3110 [6] (4xMIC, 24 h). For the same compound, the “time kill kinetics, bacterial count” value with E. coli W3110 [6] (8xMIC, 0.5 h) is 6.217 and 6.23; in the test with E. coli W3110 [6] (8xMIC, 1 h), 4.978 and 5.097; in the test on E. coli W3110 [6] (8xMIC, 2 h), 5.176 and 4.929; in the test with E. coli W3110 [6] (8xMIC, 4 h), 3.544 and 3.423; in the test with E. coli W3110 [6] (8xMIC, 8 h), 2.699; in the test with E. coli W3110 [6] (8xMIC, 24 h), 2.301 and 2.
